Experimental data reported in patent publication US20130123287A1, “CONTROL AGENT FOR SOFT ROT AND CONTROL METHOD FOR THE SAME” (ISHIHARA SANGYO KAISHA, LTD., priority 2010, published 2013).

Key:
[1] = system: bacteria causing the soft rot (Erwinia carotovora); assay: Inhibition test of growth of bacteria causing soft rot, Reference Test Example 6; type: cell-based; conditions: for formed colonies (growth state), grade: PSA medium, 27 degrees Celsius, 3 days
Excerpt: (§1) An inhibition test of the growth of bacteria causing the soft rot was done, when a control agent was directly applied to the bacteria causing the soft rot. A given volume of each pesticide of fludioxonil (Seibia FL [trade name] manufactured by Syngenta Japan K.K.), iminoctadine albesilate salt (Bellkute WP [trade name], manufactured by Nippon Soda Co., Ltd.), iprodione (Rovral WP [trade name] manufactured by Bayer Crop Science Co., Ltd.), and streptomycin (Mycin Wettable powder [trade name] manufactured by Hokko Chemical Industry Co., Ltd.) was added together with a suspension of the bacteria causing the soft rot (Erwinia carotovora) to a preliminarily dissolved PSA culture medium (55 degrees Celsius) for subsequent thorough agitation, which was then spread on a plate for culturing at 27 degrees Celsius for 3 days, to examine the growth state. Subsequently, the formed colonies were examined according to the following three grades. • +: at the same level as the level of non-treated lot.
(§2) Plus or minus: apparently less than the colonies of the non-treated lot. • −: almost no colonies observed.

[2] = system: soft rot of Chinese cabbage; assay: Test for controlling soft rot of Chinese cabbage, Example 3 / Comparative Example 3 (field, cultivar Muso); type: in vivo; conditions: 500 g ai/10 a, 150 L/10 a sprayed onto planting holes before planting, 51 days after start
Excerpt: (§3) Frequency of the disease=[sigma(number of plants with the onset of the disease at each severity level*index of the onset of the disease)/(plants examined*4)]*100
(§4) Disease control value=[1-(frequency of the disease in the treated lot/frequency of the disease in the non-treated lot)]*100
(§5) • 0: No onset • 1: Onset in some of outer leaves (shippable) • 2: Onset in outer leaves and some of head leaves (by removing damaged parts, the resulting cabbage can be shipped as small cabbage but is ranked as grade B). • 3: Most of head leaves are inflicted with the onset of the disease or with severer damages (not shippable) • 4: Whole cabbage plant is inflicted with the onset of the disease and is dead.
442 g/l kresoxim-methyl (STROBY FLOWABLE [trade name], manufactured by BASF) was adjusted to 500 g ai/10a (0.5 g/m^2, 1131 ml Product/10a) as the amount of the active ingredient and to 150 L/10a as the volume of diluent water. […]
(§6) 51 days after the start of the tests, all the plants in each lot were examined about the severity level of the disease to assess the frequency of the disease and the disease control value. The frequency of the disease and the disease control value were determined in the same manner as described above. Because soft rot is a disease with damages hardly controlled, herein, even a chemical at the level C determined by the tests of the effects can practically be used.

[3] = system: soft rot of Chinese cabbage; assay: Test for controlling soft rot of Chinese cabbage, Example 1 / Comparative Example 1 (field, cultivar Muso); type: in vivo; conditions: 250 g ai/10 a, 150 L/10 a sprayed onto planting holes before planting, 54 days after start
Protocol: 200 g/l Azoxystrobin (Amistar 20 FLOWABLE [trade name], manufactured by Syngenta Japan K.K.) was adjusted to 250 g ai/10a (0.25 g/m^2, 1250 ml Product/10a) as the amount of the active ingredient and to 150 L/10a as the volume of diluent water.
100 g/l Cyazofamid (RANMAN FLOWABLE [trade name], manufactured by Ishihara Sangyo Kaisha, Ltd.) was adjusted to 250 g ai/10a (0.25 g/m^2, 2500 ml Product/10a) as the amount of the active ingredient and to 150 L/10a as the volume of diluent water.
177 g/l Amisulbrom (LEIMAY FLOWABLE [trade name], manufactured by Nissan Chemical Industries, Ltd.) was adjusted individually to 250 g ai/10a (0.25 g/m^2, 1412 ml Product/10a) as the amount of the active ingredient and to 150 L/10a as the volume of diluent water.
After spreading an agricultural mulch-sheet and opening planting holes (diameter of about 9 cm) for permanent planting through the mulch-sheet, the spray solutions prepared as described above were sprayed onto the planting holes such that the amount of treated active ingredient of each spray solution was 0.25 g/m^2 (150 L per 10a), followed by air-drying; subsequently, seedlings of Chinese cabbage (cultivar: Muso) grown for 4 weeks in cell mold trays (128 holes/nursery box) were planted such that 30 seedlings were planted in each test lot having an area of 6 m^2 with two replications.
(§7) Preparation was performed by diluting streptomycin (Mycin 20 wettable powder solution [under the trade name] manufactured by Hokko Chemical Industry Co., Ltd.) with water to 1/1000.
In a field spread with the agricultural mulch-sheet, Chinese cabbage seedlings (cultivar: Muso) grown by the same method as in Example 1 were planted by the same method as in Example 1, for spraying the spray solution of streptomycin prepared above in (1) (at each spray volume of 300 L/10a) three times (13 days, 20 days and 27 days after the planting of the seedlings) on the stems and leaves.
54 days after the start of the tests, all the plants in each lot were examined about the severity level of the disease; according to the following equations, the ratio of the plants with the onset of the disease, the frequency of the disease, and the disease control value were calculated to determine and rank the effects at A to D levels. Because soft rot is a disease with damages hardly controlled, herein, even a chemical at the level C determined by the tests of the effects can practically be used.
Ratio of the plants with the onset of the disease=(Number of plants with the onset of the disease/number of plants examined)*100
Frequency of the disease=[sigma(number of plants with the onset of the disease at each severity level*index of the onset of the disease)/(plants examined*4)]*100 […]

[4] = system: soft rot of Chinese cabbage; assay: Test for controlling soft rot of Chinese cabbage, Example 2 / Comparative Example 2 (field, cultivar Harebutai 65); type: in vivo; conditions: 500 g ai/10 a, 150 L/10 a sprayed onto planting holes before planting, 64 days after start
Excerpt: as §3, §4, §5
200 g/l Azoxystrobin (Amistar 20 FLOWABLE [trade name], manufactured by Syngenta Japan K.K.) was adjusted to 500 g ai/10a (0.5 g/m^2, 2500 ml Product/10a) as the amount of the active ingredient and to 150 L/10a as the volume of diluent water.
30% w/w triflumizol (TRIFUMIN WP [trade name], manufactured by Nippon Soda Co., Ltd.) was adjusted to 500 g ai/10a (0.5 g/m^2, 1667 g Product/10a) as the amount of the active ingredient and to 150 L/10a as the volume of diluent water.
100 g/1 cyazofamid (RANMAN PLOWABLE [trade name], manufactured by Ishihara Sangyo Kaisha, Ltd.) was adjusted to 500 g ai/10a (0.5 g/m^2, 5000 ml Product/10a) as the amount of the active ingredient and to 150 L/10a as the volume of diluent water.
50% w/w penthiopyrad (GAIA WG [trade name], manufactured by Mitsui Chemicals Agro, Inc.) was adjusted to 500 g ai/10a (0.5 g/m^2, 1000 g Product/10a) as the amount of the active ingredient and to 150 L/10a as the volume of diluent water.
50 g/l flusulfamide (SCABLOCK SC [trade name], manufactured by Mitsui Chemicals Agro, Inc.) was adjusted to 500 g ai/10a (0.5 g/m^2, 10000 ml Product/10a) as the amount of the active ingredient and to 150 L/10a as the volume of diluent water.
400 g/1 chlorothalonil (Daconil 1000 [the trade name], manufactured by Sumitomo Chemical, Limited) was adjusted to 1000 g ai/10a (1.0 g/m^2, 2500 ml Product/10a) as the amount of the active ingredient and to 150 L/10a as the volume of diluent water.
After spreading an agricultural mulch-sheet and opening planting holes (diameter of about 5 cm) for permanent planting through the mulch-sheet, the spray solutions prepared as described above were sprayed onto the planting holes such that the amount of treated active ingredient of chlorothalonil was 1.0 g/m^2 (150 L per 10a) and the amount of each of the remaining spray solutions was 0.5 g/m^2 (150 L per 10a), followed by air-drying; subsequently, seedlings of Chinese cabbage (cultivar Harebutai 65) grown for 4 weeks in cell mold trays (128 holes/nursery box) were planted such that 19 seedlings were planted in each test lot having an area of 2.4 m^2 with two replications.
as §7
In a field spread with the agricultural mulch-sheet, Chinese cabbage seedlings (cultivar: Harebutai 65) grown by the same method as in Example 2 were planted by the same method as in Example 2, for spraying the spray solution of streptomycin prepared above in (1) (at each spray volume of 300 L/10a) twice (27 days and 48 days after the planting of the seedlings) on the stems and leaves with a sprayer.
as §6, with “64” for “51”, “In the same manner as described above, the” for “The”, “determined. Additionally,” for “determined in the same manner as described above. Because”, “so” for “herein,”

[5] = system: bacteria causing the soft rot (Erwinia carotovora); assay: Inhibition test of growth of bacteria causing soft rot, Reference Test Example 1; type: cell-based; conditions: for formed colonies (growth state), grade: PSA medium, 25 degrees Celsius, 4 days
Protocol: as §1, with “cyazofamid (RANMAN 400SC” for “fludioxonil (Seibia FL”, “Ishihara Sangyo Kaisha, Ltd.), amisulbrom (LEIMAY FLOWABLE” for “Syngenta Japan K.K.), iminoctadine albesilate salt (Bellkute WP”, “Nissan Chemical Industries, Ltd.)” for “Nippon Soda Co., Ltd.), iprodione (Rovral WP [trade name] manufactured by Bayer Crop Science Co., Ltd.),”, “25” for “27”, “4” for “3”
as §2

[6] = active ingredient concentration of 1,000 ppm

Row | Compound | formed colonies (growth state), grade ([1]; 100 ppm active ingredient) | formed colonies (growth state), grade ([1]; 500 ppm active ingredient) | formed colonies (growth state), grade ([1]; 1000 ppm active ingredient) | inhibition of growth of Erwinia carotovora (in words) [1, 6] | Determination of effect [2] | Determination of effect [3] | Determination of effect [4] | formed colonies (growth state), grade ([5]; 100 ppm active ingredient) | formed colonies (growth state), grade ([5]; 500 ppm active ingredient) | formed colonies (growth state), grade ([5]; 1000 ppm active ingredient) | inhibition of growth of Erwinia carotovora (in words) [5, 6]
1 | 1,1′-iminodi(octamethylene)diguanidinium=tris(alkylbenzenesulfonate) [Iminoctadine albesilate salt] | +, + | +, + | +, + | never inhibited the growth | B (B: Effective (41 to 60 disease control value)) |  |  |  |  |  | 
2 | Cc1ccc(-c2c(Cl)nc(C#N)n2S(=O)(=O)N(C)C)cc1 [Cyazofamid, 4-chloro-2-cyano-N,N-dimethyl-5-p-tolylimidazole-1-sulfoneamide] |  |  |  |  |  | D (D: Poorly effective (20 or smaller disease control value)) | C (C: Effective at low level (21 to 40 disease control value)) | +, + | +, + | +, + | never inhibited the growth
